Source: ChEMBL document CHEMBL4507291 (2021)

What was measured:
[1] = system: Tyrosine-protein kinase ABL1 (Homo sapiens), P00519 [Q252H]
[2] = biological target: Serine/threonine-protein kinase NIM1 (Homo sapiens) (UniProt Q8IY84)
[3] = system: Receptor-type tyrosine-protein kinase FLT3 (Homo sapiens), P36888 [UNDEFINED MUTATION]
[4] = system: Hepatocyte growth factor receptor (Homo sapiens), P08581 [M1250T]
[5] = biological target: Misshapen-like kinase 1 (Homo sapiens) (UniProt Q8N4C8)
[6] = biological target: Serine/threonine-protein kinase PAK 6 (Homo sapiens) (UniProt Q9NQU5)
[7] = biological target: Mitogen-activated protein kinase kinase kinase kinase 5 (Homo sapiens) (UniProt Q9Y4K4)
[8] = biological target: 5-hydroxytryptamine receptor 2A (Homo sapiens) (UniProt P28223); conditions: Compound concentration 10.0 uM
[9] = biological target: Dual specificity mitogen-activated protein kinase kinase 2 (Homo sapiens) (UniProt P36507)
[10] = biological target: Interleukin-1 receptor-associated kinase 3 (Homo sapiens) (UniProt Q9Y616)
[11] = biological target: Fibroblast growth factor receptor 4 (Homo sapiens) (UniProt P22455)
[12] = biological target: Casein kinase I isoform gamma-1 (Homo sapiens) (UniProt Q9HCP0)
[13] = biological target: T1, Ephrin type-B receptor 3 (Homo sapiens) (UniProt P54753)
T1 sequence (whole entry): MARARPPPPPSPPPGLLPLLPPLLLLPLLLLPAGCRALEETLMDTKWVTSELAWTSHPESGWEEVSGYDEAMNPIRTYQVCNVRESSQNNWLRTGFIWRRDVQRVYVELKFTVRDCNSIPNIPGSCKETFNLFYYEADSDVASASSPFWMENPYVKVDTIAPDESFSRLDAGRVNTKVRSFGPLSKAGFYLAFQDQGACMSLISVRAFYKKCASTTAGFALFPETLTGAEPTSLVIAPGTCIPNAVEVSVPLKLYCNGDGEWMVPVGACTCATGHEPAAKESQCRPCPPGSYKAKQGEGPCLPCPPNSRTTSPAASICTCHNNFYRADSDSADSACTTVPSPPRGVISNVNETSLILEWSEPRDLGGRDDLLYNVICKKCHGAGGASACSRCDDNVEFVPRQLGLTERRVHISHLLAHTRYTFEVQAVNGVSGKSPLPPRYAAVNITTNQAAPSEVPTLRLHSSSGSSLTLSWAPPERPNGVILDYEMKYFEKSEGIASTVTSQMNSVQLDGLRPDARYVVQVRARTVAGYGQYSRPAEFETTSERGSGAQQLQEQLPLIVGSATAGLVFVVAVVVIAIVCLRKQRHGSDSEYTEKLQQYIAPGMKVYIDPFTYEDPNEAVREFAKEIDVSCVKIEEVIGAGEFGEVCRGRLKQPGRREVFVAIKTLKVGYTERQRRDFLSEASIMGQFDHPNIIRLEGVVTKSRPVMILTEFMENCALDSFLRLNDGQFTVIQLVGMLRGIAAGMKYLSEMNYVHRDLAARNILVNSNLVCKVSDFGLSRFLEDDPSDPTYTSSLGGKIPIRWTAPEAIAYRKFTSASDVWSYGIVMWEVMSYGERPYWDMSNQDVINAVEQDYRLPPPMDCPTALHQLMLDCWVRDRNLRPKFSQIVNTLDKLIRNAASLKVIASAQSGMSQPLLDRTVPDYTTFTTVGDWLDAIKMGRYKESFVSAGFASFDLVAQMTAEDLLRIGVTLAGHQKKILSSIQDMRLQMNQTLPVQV

[14] = biological target: Bone morphogenetic protein receptor type-1B (Homo sapiens) (UniProt O00238)
[15] = system: Tyrosine-protein kinase ABL1 (Homo sapiens), P00519 [F317L]
[16] = biological target: Fibroblast growth factor receptor 2 (Homo sapiens) (UniProt P21802)
[17] = biological target: Receptor-interacting serine/threonine-protein kinase 1 (Homo sapiens) (UniProt Q13546)
[18] = biological target: Beta-3 adrenergic receptor (Homo sapiens) (UniProt P13945); conditions: Compound concentration 10.0 uM
[19] = biological target: Cyclin-dependent kinase 15 (Homo sapiens) (UniProt Q96Q40)
[20] = biological target: Ribosomal protein S6 kinase alpha-1 (Homo sapiens) (UniProt Q15418)
[21] = biological target: Phosphatidylinositol 4-phosphate 3-kinase C2 domain-containing subunit beta (Homo sapiens) (UniProt O00750)
[22] = biological target: Serine/threonine-protein kinase MRCK alpha (Homo sapiens) (UniProt Q5VT25)
[23] = biological target: Mitogen-activated protein kinase kinase kinase 4 (Homo sapiens) (UniProt Q9Y6R4)
[24] = biological target: T2, Serine/threonine-protein kinase Nek2 (Homo sapiens) (UniProt P51955)
T2 sequence (whole entry): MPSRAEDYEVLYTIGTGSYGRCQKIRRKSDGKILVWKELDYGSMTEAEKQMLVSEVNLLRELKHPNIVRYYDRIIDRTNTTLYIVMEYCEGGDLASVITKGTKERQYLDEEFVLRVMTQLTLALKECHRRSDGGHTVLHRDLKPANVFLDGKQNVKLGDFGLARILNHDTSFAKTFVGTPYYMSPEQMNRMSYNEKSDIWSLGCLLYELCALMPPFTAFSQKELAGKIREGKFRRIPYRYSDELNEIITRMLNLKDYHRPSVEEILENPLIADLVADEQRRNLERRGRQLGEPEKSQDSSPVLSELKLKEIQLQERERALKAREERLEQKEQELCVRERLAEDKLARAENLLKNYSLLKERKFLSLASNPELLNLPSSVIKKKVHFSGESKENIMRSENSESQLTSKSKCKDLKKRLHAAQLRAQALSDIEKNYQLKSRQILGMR

[25] = biological target: Tyrosine-protein kinase Srms (Homo sapiens) (UniProt Q9H3Y6)
[26] = Compound concentration 1000.0 nM
[27] = Compound concentration 100.0 nM

Fibroblast growth factor receptor 2 (Homo sapiens), sequence (P21802 22-821 limits assumed): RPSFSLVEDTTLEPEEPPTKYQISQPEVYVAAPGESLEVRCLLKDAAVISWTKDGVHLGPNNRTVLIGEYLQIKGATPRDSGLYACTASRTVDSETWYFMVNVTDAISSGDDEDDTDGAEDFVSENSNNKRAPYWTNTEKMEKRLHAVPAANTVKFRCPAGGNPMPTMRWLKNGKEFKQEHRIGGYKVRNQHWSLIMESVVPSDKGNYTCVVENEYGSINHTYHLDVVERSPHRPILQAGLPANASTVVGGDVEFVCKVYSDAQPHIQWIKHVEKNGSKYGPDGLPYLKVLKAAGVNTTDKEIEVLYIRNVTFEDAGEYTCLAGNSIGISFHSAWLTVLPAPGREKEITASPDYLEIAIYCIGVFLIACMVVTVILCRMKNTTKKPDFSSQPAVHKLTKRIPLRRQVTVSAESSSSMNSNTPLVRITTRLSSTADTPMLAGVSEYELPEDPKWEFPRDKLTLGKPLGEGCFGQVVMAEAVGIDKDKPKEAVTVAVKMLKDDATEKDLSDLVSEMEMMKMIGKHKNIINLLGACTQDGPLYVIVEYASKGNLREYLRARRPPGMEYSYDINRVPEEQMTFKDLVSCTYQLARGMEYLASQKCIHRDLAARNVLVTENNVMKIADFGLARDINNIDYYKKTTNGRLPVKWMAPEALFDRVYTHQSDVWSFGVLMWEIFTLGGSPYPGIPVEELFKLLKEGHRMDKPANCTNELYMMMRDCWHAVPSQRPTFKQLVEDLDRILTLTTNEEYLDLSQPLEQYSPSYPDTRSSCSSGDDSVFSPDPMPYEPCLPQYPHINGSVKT
Dual specificity mitogen-activated protein kinase kinase 2 (Homo sapiens), sequence (P36507 whole entry): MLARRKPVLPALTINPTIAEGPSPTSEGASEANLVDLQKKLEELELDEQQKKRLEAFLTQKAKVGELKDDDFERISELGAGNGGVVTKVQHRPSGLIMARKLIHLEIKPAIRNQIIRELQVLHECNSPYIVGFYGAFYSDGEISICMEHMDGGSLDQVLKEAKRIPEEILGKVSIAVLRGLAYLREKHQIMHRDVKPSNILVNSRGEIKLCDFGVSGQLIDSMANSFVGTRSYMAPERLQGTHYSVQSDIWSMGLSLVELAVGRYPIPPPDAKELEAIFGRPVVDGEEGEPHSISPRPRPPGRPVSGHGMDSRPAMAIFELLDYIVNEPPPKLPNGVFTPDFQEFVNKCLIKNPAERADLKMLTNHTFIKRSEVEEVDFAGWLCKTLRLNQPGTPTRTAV
Cyclin-dependent kinase 15 (Homo sapiens), sequence (Q96Q40 whole entry): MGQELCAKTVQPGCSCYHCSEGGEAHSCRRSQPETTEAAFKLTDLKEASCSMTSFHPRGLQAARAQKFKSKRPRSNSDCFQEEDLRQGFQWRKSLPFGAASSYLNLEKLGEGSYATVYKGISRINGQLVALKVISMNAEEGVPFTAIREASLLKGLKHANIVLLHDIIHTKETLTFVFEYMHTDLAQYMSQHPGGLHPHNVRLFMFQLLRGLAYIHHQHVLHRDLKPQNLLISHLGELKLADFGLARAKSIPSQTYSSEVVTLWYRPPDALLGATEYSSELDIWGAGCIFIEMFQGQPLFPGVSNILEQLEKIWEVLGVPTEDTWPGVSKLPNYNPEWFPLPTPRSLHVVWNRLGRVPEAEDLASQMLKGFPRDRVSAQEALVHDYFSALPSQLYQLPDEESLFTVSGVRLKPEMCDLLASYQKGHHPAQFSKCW
Ribosomal protein S6 kinase alpha-1 (Homo sapiens), sequence (Q15418 whole entry, the tested form may be a part): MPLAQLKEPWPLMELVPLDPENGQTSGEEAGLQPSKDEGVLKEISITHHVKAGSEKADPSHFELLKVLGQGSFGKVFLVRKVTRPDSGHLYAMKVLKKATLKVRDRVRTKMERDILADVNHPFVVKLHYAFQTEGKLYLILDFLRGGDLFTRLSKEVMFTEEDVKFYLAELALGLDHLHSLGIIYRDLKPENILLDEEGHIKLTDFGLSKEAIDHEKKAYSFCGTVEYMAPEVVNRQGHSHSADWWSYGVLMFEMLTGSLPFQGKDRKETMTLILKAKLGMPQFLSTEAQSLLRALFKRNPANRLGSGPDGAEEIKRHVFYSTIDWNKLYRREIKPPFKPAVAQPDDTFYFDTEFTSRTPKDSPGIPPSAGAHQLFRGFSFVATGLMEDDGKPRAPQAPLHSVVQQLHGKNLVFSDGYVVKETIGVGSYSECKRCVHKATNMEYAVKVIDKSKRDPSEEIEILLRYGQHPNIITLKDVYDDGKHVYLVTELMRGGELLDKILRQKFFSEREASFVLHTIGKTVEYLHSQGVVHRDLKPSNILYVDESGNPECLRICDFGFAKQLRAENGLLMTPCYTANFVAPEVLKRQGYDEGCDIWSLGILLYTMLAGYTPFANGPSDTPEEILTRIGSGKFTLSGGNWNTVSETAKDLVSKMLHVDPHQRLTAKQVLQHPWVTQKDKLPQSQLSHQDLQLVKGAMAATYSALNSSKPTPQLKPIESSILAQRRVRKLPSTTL
Misshapen-like kinase 1 (Homo sapiens), sequence (Q8N4C8 whole entry, looked up): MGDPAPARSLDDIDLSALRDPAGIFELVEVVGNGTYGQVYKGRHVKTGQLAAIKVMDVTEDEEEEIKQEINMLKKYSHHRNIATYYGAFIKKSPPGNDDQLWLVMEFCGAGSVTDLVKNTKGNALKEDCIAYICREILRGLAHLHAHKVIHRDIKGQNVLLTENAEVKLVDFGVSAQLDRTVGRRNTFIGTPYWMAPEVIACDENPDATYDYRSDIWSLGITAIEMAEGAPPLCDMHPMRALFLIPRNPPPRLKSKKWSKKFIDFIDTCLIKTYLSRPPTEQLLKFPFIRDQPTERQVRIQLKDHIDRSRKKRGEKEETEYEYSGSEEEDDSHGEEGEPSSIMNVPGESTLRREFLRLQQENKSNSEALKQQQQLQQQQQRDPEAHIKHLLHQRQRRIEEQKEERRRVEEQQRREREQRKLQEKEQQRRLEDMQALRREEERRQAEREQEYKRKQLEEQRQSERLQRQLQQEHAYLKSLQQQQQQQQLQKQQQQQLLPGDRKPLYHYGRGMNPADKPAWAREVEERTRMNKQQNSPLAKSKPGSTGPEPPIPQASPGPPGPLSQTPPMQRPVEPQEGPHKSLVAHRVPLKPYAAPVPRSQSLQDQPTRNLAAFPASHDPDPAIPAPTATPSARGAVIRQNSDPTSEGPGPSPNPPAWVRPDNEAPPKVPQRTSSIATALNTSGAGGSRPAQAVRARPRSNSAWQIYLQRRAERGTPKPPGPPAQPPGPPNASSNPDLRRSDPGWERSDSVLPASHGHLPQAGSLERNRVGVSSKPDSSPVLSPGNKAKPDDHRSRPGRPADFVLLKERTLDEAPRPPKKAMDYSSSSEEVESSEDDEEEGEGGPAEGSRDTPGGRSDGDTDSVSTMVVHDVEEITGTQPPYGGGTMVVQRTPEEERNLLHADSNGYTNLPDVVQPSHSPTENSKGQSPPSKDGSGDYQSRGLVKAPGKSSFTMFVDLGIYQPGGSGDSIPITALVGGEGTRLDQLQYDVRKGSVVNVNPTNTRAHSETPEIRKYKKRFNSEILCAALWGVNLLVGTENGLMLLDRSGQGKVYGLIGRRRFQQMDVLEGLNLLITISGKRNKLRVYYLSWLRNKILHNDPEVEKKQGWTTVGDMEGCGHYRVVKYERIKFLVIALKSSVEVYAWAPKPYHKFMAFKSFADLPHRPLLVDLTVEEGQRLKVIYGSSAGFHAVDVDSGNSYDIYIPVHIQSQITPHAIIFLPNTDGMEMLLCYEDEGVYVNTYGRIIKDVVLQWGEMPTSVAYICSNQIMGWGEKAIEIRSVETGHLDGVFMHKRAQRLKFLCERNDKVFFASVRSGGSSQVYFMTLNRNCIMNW
Receptor-type tyrosine-protein kinase FLT3 (Homo sapiens), P36888 [UNDEFINED MUTATION], sequence (P36888 whole entry, looked up, stated change not applied): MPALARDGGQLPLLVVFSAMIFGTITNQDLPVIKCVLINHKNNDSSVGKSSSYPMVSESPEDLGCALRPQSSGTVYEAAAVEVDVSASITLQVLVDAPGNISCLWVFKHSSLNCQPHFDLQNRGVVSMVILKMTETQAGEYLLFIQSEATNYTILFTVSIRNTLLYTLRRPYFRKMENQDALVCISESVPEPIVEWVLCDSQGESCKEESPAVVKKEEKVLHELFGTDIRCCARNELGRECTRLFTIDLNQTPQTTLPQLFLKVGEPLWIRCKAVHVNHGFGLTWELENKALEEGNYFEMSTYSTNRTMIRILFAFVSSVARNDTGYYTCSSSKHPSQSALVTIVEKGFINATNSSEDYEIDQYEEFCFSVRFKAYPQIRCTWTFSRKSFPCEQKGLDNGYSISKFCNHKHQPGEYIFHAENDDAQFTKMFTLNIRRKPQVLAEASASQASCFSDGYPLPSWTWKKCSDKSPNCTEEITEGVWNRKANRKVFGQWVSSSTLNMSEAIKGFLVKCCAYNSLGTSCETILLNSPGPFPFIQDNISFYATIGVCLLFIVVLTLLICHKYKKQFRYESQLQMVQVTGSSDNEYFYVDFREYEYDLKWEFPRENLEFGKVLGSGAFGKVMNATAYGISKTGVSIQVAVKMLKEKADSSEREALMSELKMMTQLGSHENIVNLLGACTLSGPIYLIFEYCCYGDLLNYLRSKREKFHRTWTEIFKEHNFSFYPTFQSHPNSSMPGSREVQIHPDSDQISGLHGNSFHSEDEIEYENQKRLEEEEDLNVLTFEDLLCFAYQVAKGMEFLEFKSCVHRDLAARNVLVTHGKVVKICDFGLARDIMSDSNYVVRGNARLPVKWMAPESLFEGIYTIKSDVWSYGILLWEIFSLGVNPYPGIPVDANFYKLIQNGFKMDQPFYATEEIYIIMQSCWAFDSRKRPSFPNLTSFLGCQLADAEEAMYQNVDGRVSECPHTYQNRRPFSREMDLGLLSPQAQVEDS

C[C@@H]1CN(c2cc(-c3nn(C)c4ccc(OC5(C)CC5)cc34)ncn2)C[C@H](C)O1 [MLi-2-NC]
inactive: residual activity [1, 26] 93% | residual activity [2, 26] 74% | residual activity [3, 26] 91% | residual activity [4, 26] 93% | residual activity [5, 26] 66% | residual activity [6, 26] 100% | residual activity [7, 26] 100% | inhibition [8] 3.31% | residual activity [9, 26] 73% | residual activity [10, 26] 89% | residual activity [11, 26] 100% | residual activity [12, 26] 89% | residual activity [13, 26] 100% | residual activity [14, 26] 77% | residual activity [15, 26] 86% | residual activity [16, 26] 100% | residual activity [17, 26] 98% | inhibition [18] 11.8% | residual activity [19, 26] 84% | residual activity [20, 26] 100% | residual activity [21, 26] 70% | residual activity [22, 26] 89% | residual activity [23, 26] 100% | residual activity [24, 26] 100% | residual activity [25, 26] 83%

C[C@@H]1CN(c2cc(-c3n[nH]c4ccc(OC5(C)CC5)cc34)ncn2)C[C@H](C)O1 [MLi-2]
inactive: residual activity [1, 27] 100% | residual activity [2, 27] 72% | residual activity [3, 27] 100% | residual activity [4, 27] 79% | residual activity [5, 27] 84% | residual activity [6, 27] 100% | residual activity [7, 27] 100% | inhibition [8] 2.75% | residual activity [9, 27] 85% | residual activity [10, 27] 94% | residual activity [11, 27] 100% | residual activity [12, 27] 100% | residual activity [13, 27] 98% | residual activity [14, 27] 81% | residual activity [15, 27] 82% | residual activity [16, 27] 96% | residual activity [17, 27] 100% | inhibition [18] -5.99% | residual activity [19, 27] 100% | residual activity [20, 27] 93% | residual activity [21, 27] 66% | residual activity [22, 27] 90% | residual activity [23, 27] 100% | residual activity [24, 27] 86% | residual activity [25, 27] 59%
